Values quoted from earlier work, collected in patent publication US20100119604A1, “Solid drug formulation and device for storage and controlled delivery thereof” (BOSTON SCIENTIFIC SCIMED, INC., priority 2003, published 2010).
Where a name gives a salt, the structure may show the parent alone.

Details: daily exposure limit of excipient / residual solvent per ICH Guideline Q3C

Molecule	Daily limit [mg]
CC(Cl)(Cl)Cl [1,1,1-Trichloroethane]	15
ClC=C(Cl)Cl [1,1,2-Trichloroethene]	0.8
C=C(Cl)Cl [1,1-Dichloroethene]	0.08
ClCCCl [1,2-Dichloroethane]	0.05
COCCOC [1,2-Dimethoxyethane]	1.0
CCOCCO [2-Ethoxyethanol]	1.6
COCCO [2-Methoxyethanol]	0.5
CC(=O)O [Acetic acid]	50
CC(C)=O [Acetone]	50
CC#N [Acetonitrile]	4.1
COc1ccccc1 [Anisole]	50
c1ccccc1 [Benzene]	0.02
CCCCOC(C)=O [Butyl acetate]	50
ClC(Cl)(Cl)Cl [Carbon tetrachloride]	0.04
Clc1ccccc1 [Chlorobenzene]	3.6
CC(C)c1ccccc1 [Cumene]	50
C1CCCCC1 [Cyclohexane]	38.8
ClCCl [Dichloromethane]	6.0
C[S+](C)[O-] [Dimethyl sulfoxide]	50
CCO [Ethanol]	50
CCOCC [Ethyl ether]	50
CCOC=O [Ethyl formate]	50

Molecule	Daily limit [mg]
OCCO [Ethyleneglycol]	6.2
NC=O [Formamide]	2.2
O=CO [Formic acid]	50
CCCCCO [Formulation 1-Pentanol, 1-Pentanol]	50
CCCO [Formulation 1-Propanol, 1-Propanol]	50
CCC(C)O (stereo not shown) [Formulation 2-Butanol, 2-Butanol]	50
CCCCCCC [Heptane]	50
CCCCCC [Hexane]	2.9
COC(C)=O [Methyl acetate]	50
CCCCC(C)=O [Methylbutyl ketone]	0.5
CC1CCCCC1 [Methylcyclohexane]	11.8
CC(=O)CC(C)C [Methylisobutyl ketone]	50
CN(C)C=O [N,N-Dimethylformamide]	8.8
CN1CCCC1=O [N-Methylpyrrolidone]	5.3
C[N+](=O)[O-] [Nitromethane]	0.5
CCCOC(C)=O [Propyl acetate]	50
c1ccncc1 [Pyridine]	2.0
C1CCOC1 [Tetrahydrofuran]	7.2
c1ccc2c(c1)CCCC2 [Tetralin]	1.0
COC(C)(C)C [tert-Butylmethyl ether]	50
Xylene	21.7
